# Results: ChEMBL document CHEMBL6134780, “Halogenated retinoid derivatives as dual RARα and RXRα modulators for treating acute promyelocytic leukemia cells” (Eur J Med Chem, 2024)
# Activity calls are given as the source filed them. The rule behind the calls is not given here.
# Assays:
# NB-4 [1] = experiment: Antiproliferative activity against human NB4 cells assessed as inhibition of cell viability up to 3.5 uM incubated for 3 days by CCK8 assay relative to control; format: functional; conditions: time 3 day
# NB-4 [2] = experiment: Induction of cell differentiation in human NB4 cells at 0.5 uM incubated for 4 to 6 days by CD11b staining based flow cytometric analysis; format: functional; conditions: time 4-6 day
# NB-4 [3] = experiment: Induction of cell differentiation in human NB4 cells assessed as morphological changes at 0.5 uM incubated for 6 days by Wright-Giemsa staining based analysis; format: functional; conditions: time 6.0 day
# K562 [4] = experiment: Effect on cell cycle population in human K562 cells at 0.5 uM by DAPI staining based flow cytometric analysis; format: functional
# K562 [5] = experiment: Induction of apoptosis in human K562 cells assessed as early apoptotic cells at 2 uM incubated for 24 hrs by Annexin V-FITC/PI staining based flow cytometric analysis (reference value: 0.91 %); format: functional
# K562 [6] = experiment: Induction of apoptosis in human K562 cells assessed as viable cells at 1 uM incubated for 24 hrs by Annexin V-FITC/PI staining based flow cytometric analysis (reference value: 90.02 %); format: functional; conditions: read-out: Activity
# K562 [7] = experiment: Induction of apoptosis in human K562 cells assessed as necrotic cells at 1 uM incubated for 24 hrs by Annexin V-FITC/PI staining based flow cytometric analysis (reference value: 2.19 %); format: functional
# [8] = biological target: T1, Retinoic acid receptor RXR-gamma (Homo sapiens) (UniProt P48443); experiment: Agonist activity at Gal4-fused full length RXRgamma LBD (unknown origin) transfected in HEK293T cells co-transfected with pG5luc reporter and Renilla-luc at 0.1 to 1 uM incubated for 12 hrs by luciferase reporter gene assay; format: cell-based; conditions: dose 0.1-1 µM
# T1 sequence (whole entry): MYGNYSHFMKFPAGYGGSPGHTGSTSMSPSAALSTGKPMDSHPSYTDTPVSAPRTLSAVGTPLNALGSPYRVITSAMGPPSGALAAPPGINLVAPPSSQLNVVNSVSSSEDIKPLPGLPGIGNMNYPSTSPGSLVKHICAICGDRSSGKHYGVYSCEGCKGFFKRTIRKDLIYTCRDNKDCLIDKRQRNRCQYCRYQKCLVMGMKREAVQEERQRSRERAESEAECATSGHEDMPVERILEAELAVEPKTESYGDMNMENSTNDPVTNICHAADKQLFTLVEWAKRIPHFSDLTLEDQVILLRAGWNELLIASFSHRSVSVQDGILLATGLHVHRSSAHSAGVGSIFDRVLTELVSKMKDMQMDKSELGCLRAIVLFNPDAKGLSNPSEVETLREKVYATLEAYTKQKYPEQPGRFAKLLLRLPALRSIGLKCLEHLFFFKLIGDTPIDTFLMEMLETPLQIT
# [9] = biological target: T2, Retinoic acid receptor RXR-beta (Homo sapiens) (UniProt P28702); experiment: Competitive binding affinity to Gal4-fused full length RXRbeta LBD (unknown origin) transfected in HEK293T cells co-transfected with pG5luc reporter and Renilla-luc assessed as inhibition of 9-cis-RA induced transactivation at 0.1 to 1 uM incubated for 12 hrs by luciferase reporter gene assay; format: cell-based; conditions: dose 0.1-1 µM
# T2 sequence (whole entry): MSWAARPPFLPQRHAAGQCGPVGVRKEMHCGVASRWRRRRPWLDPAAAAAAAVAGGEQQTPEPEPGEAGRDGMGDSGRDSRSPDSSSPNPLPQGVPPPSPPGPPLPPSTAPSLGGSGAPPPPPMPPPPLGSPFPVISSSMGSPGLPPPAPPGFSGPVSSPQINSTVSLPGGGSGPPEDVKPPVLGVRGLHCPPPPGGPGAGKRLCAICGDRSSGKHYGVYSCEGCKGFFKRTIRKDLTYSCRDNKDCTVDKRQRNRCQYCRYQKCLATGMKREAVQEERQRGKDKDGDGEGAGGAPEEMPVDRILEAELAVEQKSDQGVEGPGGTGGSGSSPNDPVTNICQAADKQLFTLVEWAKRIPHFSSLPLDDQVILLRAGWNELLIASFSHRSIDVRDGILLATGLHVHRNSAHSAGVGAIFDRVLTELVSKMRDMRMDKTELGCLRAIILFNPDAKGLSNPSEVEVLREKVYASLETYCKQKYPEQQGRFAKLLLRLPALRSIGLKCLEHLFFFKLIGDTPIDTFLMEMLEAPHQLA
# [10] = biological target: T3, Retinoic acid receptor gamma (Homo sapiens) (UniProt P13631); experiment: Agonist activity at Gal4-fused full length human RARgamma LBD transfected in HEK293T cells co-transfected with pG5luc reporter and Renilla-luc assessed as transactivation by measuring maximal efficacy incubated for 12 hrs by dual luciferase reporter gene assay relative to control; format: cell-based
# T3 sequence (whole entry): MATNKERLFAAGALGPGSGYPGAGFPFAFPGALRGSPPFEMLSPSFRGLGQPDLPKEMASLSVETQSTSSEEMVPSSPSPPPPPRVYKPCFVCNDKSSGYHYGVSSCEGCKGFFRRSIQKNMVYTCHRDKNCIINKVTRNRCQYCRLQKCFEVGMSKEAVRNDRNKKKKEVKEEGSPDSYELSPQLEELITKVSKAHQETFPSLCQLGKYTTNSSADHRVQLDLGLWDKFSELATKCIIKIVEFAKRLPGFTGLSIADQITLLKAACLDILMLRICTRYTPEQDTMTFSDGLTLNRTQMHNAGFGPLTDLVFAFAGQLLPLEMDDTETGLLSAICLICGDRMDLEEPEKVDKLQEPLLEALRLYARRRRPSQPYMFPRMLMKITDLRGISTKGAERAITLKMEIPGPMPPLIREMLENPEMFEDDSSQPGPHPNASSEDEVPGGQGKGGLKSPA
# HEK293T = experiment: Agonist activity at 3-Flag-tagged PML-RARalpha/HA-tagged RXRalpha (unknown origin) transfected in HEK293T cells co-transfected with pGL3-beta-RARE and Renilla-luc assessed as increase in transcriptional activity at 1 uM incubated for 12 hrs by luciferase reporter gene assay relative to ATRA; format: cell-based; conditions: Homo sapiens, filed as agonist
# HeLa = experiment: Induction of 3-flag-tagged PML-RARalpha R276E mutant (unknown origin) degradation transfected in human HeLa cells at 1 to 2 uM incubated for 24 hrs by Western blot analysis; format: cell-based; conditions: dose 1-2 µM
# NB-4 [11] = experiment: Cell cycle arrest in human NB4 cells assessed as increase in cyclin B1 expression at 2 uM incubated for 3 to 24 hrs by Western blot analysis; format: functional, cell-based; conditions: time 3-24 hrs
# NB-4 [12] = experiment: Induction of apoptosis in human NB4 cells assessed as increase in cleaved-PARP expression at 2 uM incubated for 3 to 24 hrs by Western blot analysis; format: functional, cell-based; conditions: time 3-24 hrs
# ATRA-resistant NB4-LR2 [13] = experiment: Induction of apoptosis in human ATRA-resistant NB4-LR2 cells assessed as increase in cleaved-PARP expression at 2 uM incubated for 3 to 24 hrs by Western blot analysis; format: functional, cell-based; conditions: time 3-24 hrs
# NB-4 [14] = experiment: Induction of mitosis in human NB4 cells assessed as upregulation of pT210-PLK1 expression at 2 uM measured after 3 hrs by Western blot analysis; format: functional, cell-based
# ATRA-resistant NB4-LR2 [15] = experiment: Induction of mitosis in human ATRA-resistant NB4-LR2 cells assessed as upregulation of pS10-histone expression at 2 uM measured after 3 hrs by Western blot analysis; format: functional, cell-based
SMILES,inhibition (INH) (NB-4 [1]) [%],Activity (NB-4 [2]),Activity (NB-4 [3]),Activity (K562 [4]),Activity (K562 [5]) [%],viability at 1 µM (K562 [6]) [%],Activity (K562 [7]) [%],Activity [8],Activity [9],Emax [10] [%],Activity (HEK293T) [%],Activity (HeLa),Activity (NB-4 [11]),Activity (NB-4 [12]),Activity (ATRA-resistant NB4-LR2 [13]),Activity (NB-4 [14]),Activity (ATRA-resistant NB4-LR2 [15])
Cc1cc2c(cc1C(=O)/C(Br)=C\c1ccc(C(=O)O)cc1)C(C)(C)CCC2(C)C,100,Active,Active,inactive,1.05,90.4,2.02,Minimal_effect,Weak_effect,2,> 70,inactive,Active,Active,Active,Active,Active
Cc1cc2c(cc1C(=O)/C(Br)=C/c1ccc(C(=O)O)cc1)C(C)(C)CCC2(C)C,100,Active,Active,inactive,1.18,89.3,2.27,Minimal_effect,Weak_effect,15,> 70,inactive,Active,Active,Active,Active,Active
